The text below walks through data of patent publication US20260226552A1, “MUC5AC IN PANCREATIC DUCTAL ADENOCARCINOMA” (Ohio State Innovation Foundation, priority 2023, published 2026).

Marks after values point to notes of the source that are not given here.

In experiment [1] the test system is pancreatic cell lines (PCLs). Briefly: Chemosensitivity of pancreatic cell lines by MUC5AC expression level. The format is cell-based. The text has this:
It was also shown that MUC5AC detected by CLH2 (immature) and 45M1 (mature) mabs are differently localized (Ho, J. J., et al., Secretion of MUC5AC mucin from pancreatic cancer cells in response to forskolin and VIP. Biochem Biophys Res Commun, 2002. 294(3): p. 680-6). NPC-1C-specific (immunogenic) MUC5AC has a distribution similar to mature MUC5AC. It can therefore be concluded that there are differences in chemosensitivities MUC5AC^negative MUC5AC^low to moderate and MUC5AC^high pancreatic cell lines (PCLs).
Thus, adding localization and other isoform data to the level of mature MUC5AC expression gives a better predictive signal in PDA patients.

Experiment [2] has as its system MUC5AC. Put plainly: Serum MUC5AC by ELISA kit in PDA patients. The format is in vivo, human. The settings on record: recurrent group, adjuvant therapy. The text has this: One hundred resected PDA specimens and serum samples were collected. 43 patients had neoadjuvant therapy (NAT), and 57 had upfront surgery (UpS). The cellular expression of MUC5AC was studied in the resected formalin-fixed paraffin-embedded tissue through immunohistochemistry using 45M1 and CLH2 antibodies. The expression levels in the tissue were estimated using H-score intensity (0-3)X % of tumor cells with expression with results ranging from 0-300. The presence or absence of extracellular (EC) expression was also studied. Below is a summary of some significant findings. • CLH2-MUC5AC was identified in the perinuclear region or cytoplasm, while 45M1-MUC5AC was identified in apical and EC regions. […] Human serum MUC5AC levels were analyzed using the Human MUC5AC ELISA Kit (Catalog number NBP2-76703, Novus Biologicals, Centennial, CO). 45M1 and CLH2 could not be detected in the serum samples, but the commercially available kits allowed detection and measuring of MUC5AC. […]
There was an analysis of patients with serum MUC5AC levels available post-NAT […] to understand if serum MuC5AC levels help predict treatment response. […] The correlation between tissue (45M1 and CLH2) and serum MUC5AC levels was analyzed as the former correlated with treatment response in NAT-group.

For experiment [3], the system named is MUC5AC. Put plainly: Immunohistochemistry of MUC5AC glycoforms (45M1, CLH2) in resected PDA tissue, H-score and extracellular detection. The settings on record: neoadjuvant therapy group by chemotherapy. The format is in vivo, human. The procedure: Immunohistochemistry. […] The assay methodology development, optimization, and validation mirrors any new clinical immunohistochemical assay development in the laboratory. […] Briefly, the assay is performed on automated Stainer's (Leica Bond or Dako) in the laboratory. Appropriate positive (e.g., normal stomach) and negative tissue (e.g. normal pancreas) controls are used to optimize and validate the assay. The best pretreatment and antibody detection systems are determined using the manufacturer's antibody datasheet, and titration of at least three antibody dilutions are performed. If there is no recommendation from the manufacturer, the antibody is tested by trying the different lab pretreatment and detection system methods in order to determine the best method. Antibody dilutions may need to be optimized, depending on the results of initial testing. A pathologist reviews the slides from the validation run to determine the optimal methodology. Assessment of MUC5AC immunohistochemical staining. The immunohistochemical-labelled whole tumor section slides is reviewed by a pathologist with expertise in pancreaticobiliary pathology. The slides are reviewed for the expression patterns (Cytoplasmic vs Membranous) and scored for the extent (% of tumor stain) and intensity of staining (Negative 0, mild 1+, moderate 2+ and strong +3). A semiquantitative approach of H-score is assigned to tumor samples for statistical analysis. […] Tumor with scores <10 are considered as negative for expression. […] One hundred resected PDA specimens and serum samples were collected. 43 patients had neoadjuvant therapy (NAT), and 57 had upfront surgery (UpS). […] The presence or absence of extracellular (EC) expression was also studied. […] NR vs. […] Five of them were heavily treated with systemic therapy. […] Serum samples for the patients were collected at different time points of the management. This allowed for studying the relationship between serum MUC5AC with the known pancreatic cancer tumor marker CA 19-9 and MUC5AC's role in predicting treatment response. […] PR vs. […] The CA 19-9 levels followed the same trend (nCR vs. PR vs. NR=129 vs. 452 vs. 958, p>0.05). […] This can explain larger tumors in these groups. […] It should be noted that CA 19-9 levels were very high but not statistically significant in lower MUC5AC groups. One key takeaway from this is that PFS is not only driven by the pathological response in NAT group. Clinically, this may translate into guiding the physicians about the timing of surgery while on systemic therapy. […] OR vs. NR, 2.64 vs. 0.9, p=0.05). • There were 17 patients within 8 weeks of surgery, 9 within 5 weeks, and 8 from 5-8 weeks. The mean MUC5AC was lower than the ones noted in the pretreatment/presurgery population (1.2 ng/mL). […] The pathological response noted on the resected sample in NAT-group reported from the scale of 1-3 based on the treatment response. For practical purposes, patients with extensive tumors with no evident tumor regression or 3 were designated as the no-response (NR) group. Patients with residual tumors with evidence of regression or 2 and near complete response or single cells or small group of cancer cells or 1 were considered as partial-response (PR) or near complete-response (nCR), respectively.

[4] abbreviates: compared with MUC5AC low to moderate PCLs.
[5] abbreviates: compared with MUC5AC negative PCLs.

On to `N.N.[Cl][Pt][Cl]` [Cisplatin, cisplatin], for which the “chemosensitivity of MUC5AC high PCLs” value in experiment [1] (setting [4]) and in experiment [1] (setting [5]) was “more sensitive” in each case.

In the case of `CCc1c2c(nc3ccc(OC(=O)N4CCC(N5CCCCC5)CC4)cc13)-c1cc3c(c(=O)n1C2)COC(=O)[C@]3(O)CC` [Irinotecan, irinotecan], the “chemosensitivity of MUC5AC high PCLs” value in experiment [1] (setting [5]) is given as “more sensitive”.

With `O=C1[O][Pt]2([NH][C@@H]3CCCC[C@H]3[NH]2)[O]C1=O` [Oxaliplatin, oxaliplatin], the “chemosensitivity of MUC5AC high PCLs” value in experiment [1] (setting [4]) is reported as “more sensitive”; in experiment [1] (setting [5]), “resistant”.

For `Nc1ccn([C@@H]2O[C@H](CO)[C@@H](O)C2(F)F)c(=O)n1` [Gem, gemcitabine], the “chemosensitivity of MUC5AC high PCLs” value in experiment [1] (setting [4]) is reported as “resistant”. For the same molecule, the “chemosensitivity of MUC5AC high PCLs” value in experiment [1] (setting [5]) was “resistant”. For the same molecule, the “Serum MUC5AC” value in the experiment on MUC5AC [2] (after chemotherapy) is on record as 5.3* ng/mL. In the experiment on MUC5AC [2] (before chemotherapy), the “Serum MUC5AC” value turned out to be 1.1 ng/mL. Further, in the experiment with MUC5AC [3], the “45M1 H-score mean” value stood at 116, the “45M1 H-score median (range)” value is on record as 150 (10-210), the 45M1 detection rate was found to be 100% and the “CLH2 H-score mean” value is on record as 150)/90. Also, in the experiment with MUC5AC [3], the “CLH2 H-score median (range)” value is recorded as 120, the CLH2 detection rate was found to be 100% and the EC-45M1 detection rate stood at 60%.

For the molecule `O=c1[nH]cc(F)c(=O)[nH]1` [5FU, fluorouracil], in experiment [1] (setting [4]), the “chemosensitivity of MUC5AC high PCLs” value was “more sensitive”. For the same molecule, the “chemosensitivity of MUC5AC high PCLs” value in experiment [1] (setting [5]) is listed as “more sensitive”. Besides, in the experiment with MUC5AC [3], the “45M1 H-score mean” value was 130, the “45M1 H-score median (range)” value is listed as 105 (0-270), the 45M1 detection rate is listed as 89% and the “CLH2 H-score mean” value came out at 126. Besides, in the experiment on MUC5AC [3], the “CLH2 H-score median (range)” value was 95 (0-270), the CLH2 detection rate is listed as 89% and the EC-45M1 detection rate came out at 58%.
